Assay results as given in paper PMC10675840, “Structure-function analysis of ceTIR-1/hSARM1 explains the lack of Wallerian axonal degeneration in C. elegans” (Cell reports, 2023).
Numbering of substitutions follows the chain as printed.

What was measured:
Assay in all cases: HPLC NAD+ consumption, Michaelis-Menten fit
Format in all cases: biochemical
Details in all cases: […] C, […] min, pH […]
ceTIR-1 [1] = molecular target: T1, ceTIR-1 (Caenorhabditis elegans, UniProt Q86DA5, R828K)
T1 construct: gene tir-1; near-intact ARM-SAM-SAM-TIR, residues 162-872 (HMD...QQR), N-terminal 6xHis + TEV site, HEK293F expression, mostly 9-mer ring, partly dissociated
T1 sequence (Q86DA5 216-926 R828K): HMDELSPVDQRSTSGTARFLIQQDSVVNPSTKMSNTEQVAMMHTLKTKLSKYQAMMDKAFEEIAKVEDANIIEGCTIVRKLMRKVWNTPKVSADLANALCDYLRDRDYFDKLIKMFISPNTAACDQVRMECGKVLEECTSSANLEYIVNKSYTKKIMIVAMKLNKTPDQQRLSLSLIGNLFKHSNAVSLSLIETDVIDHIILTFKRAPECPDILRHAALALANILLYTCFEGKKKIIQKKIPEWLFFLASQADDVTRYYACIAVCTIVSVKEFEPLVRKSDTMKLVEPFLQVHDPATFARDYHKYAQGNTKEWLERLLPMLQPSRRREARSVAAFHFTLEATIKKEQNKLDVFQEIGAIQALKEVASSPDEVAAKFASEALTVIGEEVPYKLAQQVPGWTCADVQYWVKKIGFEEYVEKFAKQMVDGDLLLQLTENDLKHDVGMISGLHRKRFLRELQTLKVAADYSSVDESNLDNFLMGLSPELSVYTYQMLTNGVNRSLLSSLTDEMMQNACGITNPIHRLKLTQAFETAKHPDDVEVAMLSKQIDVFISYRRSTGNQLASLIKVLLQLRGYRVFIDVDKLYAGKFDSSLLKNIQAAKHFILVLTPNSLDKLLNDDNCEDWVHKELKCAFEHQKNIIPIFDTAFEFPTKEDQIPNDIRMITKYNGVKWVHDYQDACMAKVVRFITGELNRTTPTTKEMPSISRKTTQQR

ceTIR-1 [2] = molecular target: T2, ceTIR-1 (Caenorhabditis elegans, UniProt Q86DA5, F863W)
T2 construct: gene tir-1; near-intact ARM-SAM-SAM-TIR, residues 162-872 (HMD...QQR), N-terminal 6xHis + TEV site, HEK293F expression, mostly 9-mer ring, partly dissociated
T2 sequence (Q86DA5 216-926 F863W): T1 sequence (Q86DA5 216-926 R828K) with K613R, F648W

ceTIR-1 [3] = molecular target: T3, ceTIR-1 (Caenorhabditis elegans, UniProt Q86DA5, D888E)
T3 construct: gene tir-1; near-intact ARM-SAM-SAM-TIR, residues 162-872 (HMD...QQR), N-terminal 6xHis + TEV site, HEK293F expression, mostly 9-mer ring, partly dissociated
T3 sequence (Q86DA5 216-926 D888E): T1 sequence (Q86DA5 216-926 R828K) with K613R, D673E

NC(=O)c1ccc[n+]([C@@H]2O[C@H](COP(=O)(O)OP(=O)(O)OC[C@H]3O[C@@H](n4cnc5c(N)ncnc54)[C@H](O)[C@@H]3O)[C@@H](O)[C@H]2O)c1 [NAD^+]
Km (ceTIR-1 [1]): none of these substitutions had any significant effect on Km | Km (ceTIR-1 [2]): none of these substitutions had any significant effect on Km | Km (ceTIR-1 [3]): none of these substitutions had any significant effect on Km
